Key:
[1] = 100 kPa, Liquid, Capillary tube (Ostwald / Ubbelohde) method
[2] = xn = mol fraction of the nth substance listed; settings: 100 kPa, Liquid; for thermal conductivity: Hot wire method

OCCO [1,2-ethanediol]
[1]
Settings	viscosity [mPa·s]
295.55 K	19.1
313.05 K	9.74
333.1 K	5.24
353.05 K	3.13
372.15 K	2.06
392.45 K	1.44
412.25 K	1.07
428.3 K	0.867

OCCO [1,2-ethanediol] + O
[2]
Settings	mass density [kg/m3]	thermal conductivity [W/m/K]	viscosity [mPa·s]
296.4 K, x1 = 0.25	1068	–	–
296.45 K, x1 = 0.25	–	–	3.69
297.05 K, x1 = 0.5	1094	–	7.61
297.35 K, x1 = 0.75	1106	–	12.3
298.5 K, x1 = 0.75	–	0.269	–
303.4 K, x1 = 0.25	–	0.391	–
312.3 K, x1 = 0.5	–	0.316	–
313.05 K, x1 = 0.25	1058	–	2.29
313.05 K, x1 = 0.5	1083	–	4.49
313.05 K, x1 = 0.75	1094	–	6.97
323.6 K, x1 = 0.25	–	0.4	–
324.2 K, x1 = 0.75	–	0.272	–
324.4 K, x1 = 0.5	–	0.314	–
333.05 K, x1 = 0.25	1045	–	1.47
333.1 K, x1 = 0.5	1069	–	2.62
333.1 K, x1 = 0.75	1080	–	3.88
347.5 K, x1 = 0.75	–	0.277	–
347.7 K, x1 = 0.5	–	0.324	–
348.6 K, x1 = 0.25	–	0.416	–
353.05 K, x1 = 0.25	1030	–	0.99
353.05 K, x1 = 0.5	1054	–	1.7
353.05 K, x1 = 0.75	1065	–	2.42
371.9 K, x1 = 0.75	–	0.281	–
372 K, x1 = 0.25	–	0.423	–
372.8 K, x1 = 0.5	–	0.33	–
373.45 K, x1 = 0.75	1049	–	1.62
374.85 K, x1 = 0.25	1013	–	–
376.05 K, x1 = 0.5	1035	–	–
378.85 K, x1 = 0.25	–	–	0.689
380.05 K, x1 = 0.5	–	–	1.07
383.35 K, x1 = 0.75	1041	–	1.37
390.25 K, x1 = 0.5	1023	–	–
393.2 K, x1 = 0.75	1033	–	1.18
394.25 K, x1 = 0.5	–	–	0.87
395.9 K, x1 = 0.25	–	0.428	–
396.8 K, x1 = 0.75	–	0.28	–
396.95 K, x1 = 0.25	995.5	–	–
397 K, x1 = 0.5	–	0.332	–
400.95 K, x1 = 0.25	–	–	0.518
403.15 K, x1 = 0.75	1025	–	1.02
404.75 K, x1 = 0.75	1023	–	–
406.05 K, x1 = 0.5	1010	–	–
407.75 K, x1 = 0.75	–	–	0.978
410.05 K, x1 = 0.5	–	–	0.706
413.15 K, x1 = 0.75	1016	–	0.903
417.15 K, x1 = 0.25	977.4	–	–
418.35 K, x1 = 0.75	1012	–	–
419.9 K, x1 = 0.75	–	0.279	–
421 K, x1 = 0.25	–	0.432	–
421.15 K, x1 = 0.25	–	–	0.418
421.7 K, x1 = 0.5	–	0.32	–
422.35 K, x1 = 0.75	–	–	0.806
423.55 K, x1 = 0.5	994.5	–	–
427.55 K, x1 = 0.5	–	–	0.573
431.55 K, x1 = 0.25	964.9	–	–
431.95 K, x1 = 0.75	1000	–	–
435.55 K, x1 = 0.25	–	–	0.366
435.95 K, x1 = 0.75	–	–	0.691
436.65 K, x1 = 0.5	982.5	–	–
440.65 K, x1 = 0.5	–	–	0.5
441.6 K, x1 = 0.75	–	0.276	–
445.85 K, x1 = 0.75	987	–	–
449.85 K, x1 = 0.75	–	–	0.594

OCCOCCO [diethylene glycol]
[1]
Settings	viscosity [mPa·s]
294.2 K	35.1
313.05 K	15.1
333.05 K	7.64
353.05 K	4.41
373.6 K	2.76
393.4 K	1.92
413.25 K	1.41
428.15 K	1.15

OCCOCCO [diethylene glycol] + O
[2]
Settings	mass density [kg/m3]	thermal conductivity [W/m/K]	viscosity [mPa·s]
293.45 K, x1 = 0.5	1111	–	22
294.05 K, x1 = 0.75	1115	–	30.4
294.25 K, x1 = 0.25	1095	–	9.79
294.4 K, x1 = 0.25	–	0.291	–
295.9 K, x1 = 0.5	–	0.235	–
296.4 K, x1 = 0.75	–	0.209	–
312.95 K, x1 = 0.5	1097	–	9.64
313.05 K, x1 = 0.25	1081	–	4.88
313.05 K, x1 = 0.75	1101	–	13.3
322.1 K, x1 = 0.5	–	0.244	–
323.4 K, x1 = 0.25	–	0.31	–
323.8 K, x1 = 0.75	–	0.213	–
332.95 K, x1 = 0.5	1082	–	5.03
333.05 K, x1 = 0.25	1066	–	2.76
333.05 K, x1 = 0.75	1087	–	6.75
347.4 K, x1 = 0.25	–	0.315	–
347.8 K, x1 = 0.5	–	0.249	–
349.6 K, x1 = 0.75	–	0.217	–
352.95 K, x1 = 0.5	1066	–	3.01
353.05 K, x1 = 0.75	1071	–	3.9
353.15 K, x1 = 0.25	1051	–	1.76
371.9 K, x1 = 0.5	–	0.258	–
373 K, x1 = 0.25	–	0.322	–
373.2 K, x1 = 0.75	–	0.219	–
380.05 K, x1 = 0.5	1043	–	–
381.45 K, x1 = 0.25	1027	–	–
382.55 K, x1 = 0.5	–	–	1.66
382.55 K, x1 = 0.75	1048	–	–
384.95 K, x1 = 0.25	–	–	1.03
385.05 K, x1 = 0.75	–	–	2
390.25 K, x1 = 0.5	1035	–	–
390.95 K, x1 = 0.75	1042	–	–
392.75 K, x1 = 0.25	1017	–	–
394.25 K, x1 = 0.5	–	–	1.37
394.95 K, x1 = 0.75	–	–	1.72
395.6 K, x1 = 0.5	–	0.257	–
396 K, x1 = 0.25	–	0.325	–
396.75 K, x1 = 0.25	–	–	0.912
396.9 K, x1 = 0.75	–	0.217	–
405.35 K, x1 = 0.5	1023	–	–
406.95 K, x1 = 0.75	1029	–	–
409.25 K, x1 = 0.25	1004	–	–
409.35 K, x1 = 0.5	–	–	1.12
410.95 K, x1 = 0.75	–	–	1.35
413.25 K, x1 = 0.25	–	–	0.743
421.5 K, x1 = 0.25	–	0.33	–
421.6 K, x1 = 0.75	–	0.222	–
422 K, x1 = 0.5	–	0.256	–
424.25 K, x1 = 0.5	1006	–	–
424.65 K, x1 = 0.75	1014	–	–
426.35 K, x1 = 0.25	987.6	–	–
428.25 K, x1 = 0.5	–	–	0.865
428.65 K, x1 = 0.75	–	–	1.05
430.35 K, x1 = 0.25	–	–	0.61
441.65 K, x1 = 0.25	973.3	–	–
443.05 K, x1 = 0.5	988.2	–	–
443.65 K, x1 = 0.75	996.3	–	–
445.65 K, x1 = 0.25	–	–	0.521
446.8 K, x1 = 0.75	–	0.213	–
447 K, x1 = 0.5	–	0.253	–
447.05 K, x1 = 0.5	–	–	0.707
447.5 K, x1 = 0.25	–	0.328	–
447.65 K, x1 = 0.75	–	–	0.838

OCCOCCOCCO [triethylene glycol]
[1]
Settings	viscosity [mPa·s]
299.65 K	35.1
313.05 K	19.5
333.1 K	9.66
353.05 K	5.55
373.5 K	3.41
393.3 K	2.36
413.25 K	1.71
428.1 K	1.39

OCCOCCOCCO [triethylene glycol] + O
[2]
Settings	mass density [kg/m3]	thermal conductivity [W/m/K]	viscosity [mPa·s]
293.85 K, x1 = 0.25	1108	–	19.2
294.05 K, x1 = 0.5	1120	–	36
294.15 K, x1 = 0.75	1122	–	43.2
295 K, x1 = 0.25	–	0.258	–
295.5 K, x1 = 0.5	–	0.21	–
295.5 K, x1 = 0.75	–	0.195	–
313.05 K, x1 = 0.25	1093	–	8.6
313.05 K, x1 = 0.5	1105	–	15.2
313.05 K, x1 = 0.75	1108	–	18.3
323.8 K, x1 = 0.25	–	0.268	–
324.6 K, x1 = 0.5	–	0.216	–
327.1 K, x1 = 0.75	–	0.197	–
333.05 K, x1 = 0.25	1078	–	4.52
333.05 K, x1 = 0.5	1089	–	7.52
333.05 K, x1 = 0.75	1092	–	9.04
349.1 K, x1 = 0.25	–	0.275	–
349.5 K, x1 = 0.5	–	0.219	–
349.8 K, x1 = 0.75	–	0.201	–
353.05 K, x1 = 0.25	1061	–	2.7
353.05 K, x1 = 0.5	1073	–	4.32
353.05 K, x1 = 0.75	1076	–	5.19
372.7 K, x1 = 0.75	–	0.202	–
373.6 K, x1 = 0.5	–	0.22	–
373.8 K, x1 = 0.25	–	0.28	–
379.65 K, x1 = 0.25	1039	–	–
382.15 K, x1 = 0.25	–	–	1.5
384.25 K, x1 = 0.5	1046	–	–
384.95 K, x1 = 0.75	1049	–	–
386.75 K, x1 = 0.5	–	–	2.09
387.45 K, x1 = 0.75	–	–	2.41
389.35 K, x1 = 0.25	1030	–	–
391.35 K, x1 = 0.5	1041	–	–
392.55 K, x1 = 0.75	1044	–	–
393.35 K, x1 = 0.25	–	–	1.27
395.35 K, x1 = 0.5	–	–	1.84
396 K, x1 = 0.5	–	0.221	–
396.4 K, x1 = 0.25	–	0.285	–
396.55 K, x1 = 0.75	–	–	2.11
397.6 K, x1 = 0.75	–	0.2	–
405.75 K, x1 = 0.25	1016	–	–
407.45 K, x1 = 0.75	1032	–	–
407.85 K, x1 = 0.5	1028	–	–
409.75 K, x1 = 0.25	–	–	1
411.45 K, x1 = 0.75	–	–	1.68
411.85 K, x1 = 0.5	–	–	1.43
421.3 K, x1 = 0.25	–	0.292	–
421.9 K, x1 = 0.5	–	0.221	–
422.5 K, x1 = 0.75	–	0.198	–
423.35 K, x1 = 0.25	999.2	–	–
425.35 K, x1 = 0.75	1016	–	–
425.95 K, x1 = 0.5	1011	–	–
427.35 K, x1 = 0.25	–	–	0.813
429.35 K, x1 = 0.75	–	–	1.3
429.95 K, x1 = 0.5	–	–	1.11
442.45 K, x1 = 0.25	980	–	–
443.45 K, x1 = 0.5	995	–	–
444.55 K, x1 = 0.75	999.5	–	–
445 K, x1 = 0.25	–	0.282	–
446.45 K, x1 = 0.25	–	–	0.662
446.5 K, x1 = 0.75	–	0.195	–
447.45 K, x1 = 0.5	–	–	0.903
448.3 K, x1 = 0.5	–	0.216	–
448.55 K, x1 = 0.75	–	–	1.03
